Experimental data taken from patent publication US20200270588A1, “GLUCOSYL TRANSFERASE POLYPEPTIDES AND METHODS OF USE” (Syngenta Participations AG, priority 2017, published 2020).

Legend:
Type in all cases: biochemical
[1] = molecular target: T1, SEQ ID NO 20, mutant of Zea mays bx9 glucosyl transferase (Zea mays, UniProt B4G072, A281K/A334K/F21Y/L194V/M279F/S117V); settings: lower block, concentration printed only in upper block: V 0.300, VII 0.210; IV, VIII, XI, XXI, XX, XVIII, XVI, XV, XIV 0.200; others 1.000 mM
T1 construct: His tag (C); made in house
Protocol: (§1) Glucosyl transferase activity is assayed via measurement of acceptor substrate-dependent production of UDP from ultrapure UDP-glucose using the Promega UDP-Glo™ method and according to the manufacturer's instructions. Assays are run in 96 well microtiter plates.
(§2) Enzyme, typically at a stock concentration of ˜2 mg/ml is diluted to an appropriate concentration in 50 mM K^+ Hepes buffer at pH7.5 containing 0.5 mg/mL bovine serum albumin (BSA) and 5 ul aliquots of this diluted enzyme added to each well of a Perkin Elmer white ½ area 96 well plate. […] Assays are run for an appropriate time (usually 10 to 60 min) so that the amount of UDP formed lies within the most nearly linear part of the UDP standard curve and are stopped with the addition and mixing of 25 ul UDP-Glo™ detection reagent (prepared as described below). Plates are then incubated at room temperature for 60 minutes and then read in a luminescence plate reader (Perkin Elmer Envision 2130 Multilabel Reader). A UDP standard curve is run alongside each set of assays and reagent blank control assays run with DMSO in place of test herbicide.
(§3) The UDP-Glo™ reagents are made up and used according to the manufacturer's instructions. Thus, Nucleotide Detection Buffer and ATP are combined to make nucleotide detection reagent (NDR) dispensed into aliquots and frozen to be freshly thawed before use.
(§4) Km and kcat values in respect of UDP-glucose are derived by carrying out experiments to measure initial rates over a suitable range of concentrations of UDP glucose out at a fixed near saturating concentration of acceptor substrate. Best fit values of kcat, Km and kcat/Km are obtained by direct fitting of the data to the Michaelis-Menten equation using Graphpad Prism™ software.
All of these proteins were C-terminally his-tagged, expressed and purified as described in Example 1. Assays were run and analyzed as described in example 1.

[2] = molecular target: T2, SEQ ID NO 23, mutant of Zea mays bx9 glucosyl transferase (Zea mays, UniProt B4G072, A334K/F21Y/L194C/M279F/S117V); test: UDP-Glo glucosyl transferase assay, purified enzyme; settings: lower block, concentration printed only in upper block: V 0.300, VII 0.210; IV, VIII, XI, XXI, XX, XVIII, XVI, XV, XIV 0.200; others 1.000 mM
T2 construct: His tag (C); made in house
Protocol: as §1
as §2, with “herbicide. Typically, 300 pmol of UDP corresponds to a Relative Luminescence Unit (RLU) reading of about 1.5E7 and the response curve between 0 and 600 pmol is fitted to a polynomial function (see for example FIG. 2).” for “herbicide.”
(§5) The UDP-Glo™ reagents are made up and used according to the manufacturer's instructions. Thus, Nucleotide Detection Buffer and ATP are combined to make nucleotide detection reagent (NDR) dispensed into aliquots and frozen to be freshly thawed before use. […]
(§6) Table 13 summarizes the results obtained from assays, run as described in Example 1, using a variety of alcohol and aminal PSII herbicides as substrates of the Zea mays bx9 w/t (i.e. C-terminally his tagged SEQ ID no 1) and various mutants of the same, selected from SEQ ID NO: 16-30). All of these proteins were C-terminally his-tagged, expressed and purified as described in Example 1. Assays were run and analyzed as described in example 1. It is seen that various of the mutations herein and combinations thereof led to significant improvements (over the w/t bx9 protein) in catalytic activity versus various of the herbicides and that these improvements are often of sufficient magnitude to be useful for conferring improved herbicide tolerance upon crop. This is especially the case given that even the unmutated w/t bx9 enzyme which has only modest glucosyl transferase activity (for example against compounds V and VI) was nevertheless adequately active to confer significant herbicide tolerance in the glass house (as shown in example 9) even without mutational improvement. It is also seen that particular mutations can lead to very much improved activity in respect of some chemistries but not to others but that, overall, there is at least one variant within the scope of the current invention that provides significant and useful improvement in tolerance to each of the chemistries tested.

[3] = molecular target: T3, SEQ ID NO 19, mutant of Zea mays bx9 glucosyl transferase (Zea mays, UniProt B4G072, A281K/A334K/L194V/M279F/S117V); test: as above; settings: herbicide mM: V 0.300, VI 0.250, VII 0.210; IV, VIII, XI, XXI, XX, XVIII, XVI, XV, XIV 0.200; others 1.000
T3 construct: His tag (C); made in house
Protocol: as §1
as §2, with “herbicide. Typically, 300 pmol of UDP corresponds to a Relative Luminescence Unit (RLU) reading of about 1.5E7 and the response curve between 0 and 600 pmol is fitted to a polynomial function (see for example FIG. 2).” for “herbicide.”
as §5, §6

[4] = molecular target: T4, SEQ ID NO 18, mutant of Zea mays bx9 glucosyl transferase (Zea mays, UniProt B4G072, A281K/A334K/F21Y/M279F/S117V); test: as above; settings: herbicide mM: V 0.300, VI 0.250, VII 0.210; IV, VIII, XI, XXI, XX, XVIII, XVI, XV, XIV 0.200; others 1.000
T4 construct: His tag (C); made in house
Protocol: as §1
as §2, with “herbicide. Typically, 300 pmol of UDP corresponds to a Relative Luminescence Unit (RLU) reading of about 1.5E7 and the response curve between 0 and 600 pmol is fitted to a polynomial function (see for example FIG. 2).” for “herbicide.”
as §5, §6

[5] = molecular target: T5, Zea mays bx9 glucosyl transferase (C-terminally his tagged SEQ ID NO: 1) (Zea mays, UniProt B4G072); test: as above; settings: for kcat: 0.5 mM UDP-glucose, 25 C, pH 7.5, DMSO reagent blank as control; for Activity: herbicide mM: V 0.300, VI 0.250, VII 0.210, IV, VIII, XI, XXI, XX, XVIII, XVI, XV, XIV 0.200, others 1.000
T5 construct: His tag (C); made in house; host or cells: E. coli BL21 (DE3), pET24a
T5 sequence (B4G072 1-462): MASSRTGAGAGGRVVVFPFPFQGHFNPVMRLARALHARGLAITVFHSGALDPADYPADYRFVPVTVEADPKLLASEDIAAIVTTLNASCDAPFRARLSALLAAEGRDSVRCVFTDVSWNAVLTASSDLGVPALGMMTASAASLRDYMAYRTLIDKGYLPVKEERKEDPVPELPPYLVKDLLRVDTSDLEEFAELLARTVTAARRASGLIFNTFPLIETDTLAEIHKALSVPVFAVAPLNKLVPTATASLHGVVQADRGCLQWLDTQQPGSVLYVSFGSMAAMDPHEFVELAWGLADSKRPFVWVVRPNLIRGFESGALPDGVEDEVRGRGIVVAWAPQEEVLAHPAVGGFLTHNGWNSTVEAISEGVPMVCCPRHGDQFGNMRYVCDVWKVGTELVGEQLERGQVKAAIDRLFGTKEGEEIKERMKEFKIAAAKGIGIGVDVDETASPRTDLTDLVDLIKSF
Protocol: as §1
as §2, with “herbicide. Typically, 300 pmol of UDP corresponds to a Relative Luminescence Unit (RLU) reading of about 1.5E7 and the response curve between 0 and 600 pmol is fitted to a polynomial function (see for example FIG. 2).” for “herbicide.”
as §3, §4

[6] = molecular target: T6, SEQ ID NO 21, mutant of Zea mays bx9 glucosyl transferase (Zea mays, UniProt B4G072, A334K/F21Y/L194V/M279F/S117V); test: as above; settings: lower block, concentration printed only in upper block: V 0.300, VII 0.210; IV, VIII, XI, XXI, XX, XVIII, XVI, XV, XIV 0.200; others 1.000 mM
T6 construct: His tag (C); made in house
Protocol: as §1
as §2, with “herbicide. Typically, 300 pmol of UDP corresponds to a Relative Luminescence Unit (RLU) reading of about 1.5E7 and the response curve between 0 and 600 pmol is fitted to a polynomial function (see for example FIG. 2).” for “herbicide.”
as §3, §4
(§7) Variants of C-terminally his tagged SEQ ID No:1 (w/t bx9 from Zea mays), exemplified as SEQ ID 16-30, were cloned, purified and assayed as described in Example 1. FIG. 4 depicts the data from some experiments to determine the kinetic parameters of some of these variants in respect of herbicide VI and table 12 summarizes the estimates of kinetic parameters obtained from further such experiments in respect of a range of herbicides.
as §6

[7] = molecular target: T7, SEQ ID NO 22, mutant of Zea mays bx9 glucosyl transferase (Zea mays, UniProt B4G072, A334K/F21Y/M279F/S117V/T220P); test: as above; settings: lower block, concentration printed only in upper block: V 0.300, VII 0.210; IV, VIII, XI, XXI, XX, XVIII, XVI, XV, XIV 0.200; others 1.000 mM
T7 construct: His tag (C); made in house
Protocol: as §1
as §2, with “herbicide. Typically, 300 pmol of UDP corresponds to a Relative Luminescence Unit (RLU) reading of about 1.5E7 and the response curve between 0 and 600 pmol is fitted to a polynomial function (see for example FIG. 2).” for “herbicide.”
as §3, §4, §7, §6

[8] = molecular target: T8, SEQ ID NO 17, zmBX9 S117V, M279F, A334K mutant (Zea mays, UniProt B4G072, A334K/M279F/S117V); test: as above; settings: herbicide mM: V 0.300, VI 0.250, VII 0.210; IV, VIII, XI, XXI, XX, XVIII, XVI, XV, XIV 0.200; others 1.000
T8 construct: polypeptides were the C-terminally his-tagged; His tag (C); made in house
Protocol: as §1
as §2, with “herbicide. Typically, 300 pmol of UDP corresponds to a Relative Luminescence Unit (RLU) reading of about 1.5E7 and the response curve between 0 and 600 pmol is fitted to a polynomial function (see for example FIG. 2).” for “herbicide.”
as §3, §4, §7, §6

Row | Compound | Activity [1] [pmol/sec/pmol enzyme] | Activity [2] [pmol/sec/pmol enzyme] | Activity [3] [pmol/sec/pmol enzyme] | Activity [4] [pmol/sec/pmol enzyme] | kcat [5] [s⁻¹] | Activity [5] [pmol/sec/pmol enzyme] | Activity [6] [pmol/sec/pmol enzyme] | Activity [7] [pmol/sec/pmol enzyme] | Activity [8] [pmol/sec/pmol enzyme]
1 | CN1CC(O)N(c2nnc(C(C)(C)C)s2)C1=O (stereo not drawn) [IX] | 0.068 | 0.013 | 0.070 | 0.115 | 0.036 | 0.017 | 0.012 | 0.071 | 0.035
2 | CN1CC(O)N(c2cc(C(C)(C)C)c(Cl)nn2)C1=O (stereo not drawn) [III] | 0.144 | 0.066 | 0.097 | 0.170 | – | 0.001 | 0.020 | 0.144 | 0.032
3 | CON1C(=O)N(c2cc(C(F)(F)F)c(Cl)cn2)C(O)C1C (stereo not drawn) [XXI] | 1.457 | 1.746 | 1.534 | 1.524 | 0.0001 | 0.000 | 1.827 | 1.714 | 0.919
4 | CN1CC(O)N(c2cc(C(C)(C)C)on2)C1=O (stereo not drawn) [XXII] | 0.120 | 0.020 | 0.080 | 0.186 | – | 0.000 | 0.015 | 0.101 | 0.023
5 | C[C@H]1C(=O)N(c2noc(C(C)(C)C)c2C#N)C(O)[C@@H]1C (stereo partly drawn) [XXIII] | 0.119 | 0.021 | 0.072 | 0.089 | – | −0.003 | 0.034 | 0.067 | 0.014
6 | C[C@H]1C(O)N(c2cc(C(F)(F)F)ccn2)C(=O)N1C (stereo partly drawn) [XXIV] | 1.462 | 0.816 | 1.358 | 0.982 | – | 0.001 | 1.154 | 0.908 | 0.528
7 | CN1CC(O)N(c2cc(C(F)(F)F)ncn2)C1=O (stereo not drawn) [XXV] | 0.758 | 0.449 | 0.581 | 0.553 | – | 0.000 | 0.170 | 0.458 | 0.106
8 | CN1CC(O)N(c2cc(C(C)(C)C)ncn2)C1=O (stereo not drawn) [IV] | 0.079 | 0.023 | 0.053 | 0.145 | – | 0.000 | 0.008 | 0.099 | 0.019
